From ChEMBL document CHEMBL3885861, “Open TG-GATES”

Species: Rattus norvegicus
Assay: Open TG-GATES - Regimen: Single
Type: toxicity, organism-based, Sprague-Dawley
Parameters: regimen Single, gender Male, age 6 weeks
Settings: in vivo, po, 2 mg/kg, route gavage, dose level Middle; for APTT / Bas / Eos / Fbg / Hb / Ht / Lym / MCH / MCHC / MCV / Mono / Neu / PT / Plat / RBC / Ret / WBC: tissue Blood; for KIDNEY_L / KIDNEY_R / KIDNEY_TOTAL: tissue Kidney; for LIVER: tissue Liver; for A/G / ALP / ALT / AST / BUN / CRE / Ca / Cl / DBIL / GLC / IP / K / LDH / Na / PL / RALB / TBIL / TC / TG / TP / gamma-GTP: tissue Plasma

O=NN(CCCl)C(=O)NC1CCCCC1 [LOMUSTINE]
TERMINAL_BW (3 h): 208.7 g
APTT (3 h): 16.4 s
Bas (3 h): 0%
Eos (3 h): 0.4%
Fbg (3 h): 227.8 mg/dL
Hb (3 h): 12.8 g/dL
Ht (3 h): 38.3%
Lym (3 h): 81.8%
MCH (3 h): 22.5 pg
MCHC (3 h): 33.4%
MCV (3 h): 67.4 fL
Mono (3 h): 7.2%
Neu (3 h): 10.2%
PT (3 h): 11.6 s
Plat (3 h): 102.8 x10_4/uL
RBC (3 h): 568.2 x10_4/ul
Ret (3 h): 9.5%
WBC (3 h): 127.7 x10_2/uL
KIDNEY_L (3 h): 0.9 g
KIDNEY_R (3 h): 1 g
KIDNEY_TOTAL (3 h): 1.9 g
LIVER (3 h): 10 g
A/G (3 h): 1.8
ALP (3 h): 890.2 IU/L
ALT (3 h): 35.6 IU/L
AST (3 h): 70.8 IU/L
BUN (3 h): 14.2 mg/dL
CRE (3 h): 0.5 mg/dL
Ca (3 h): 11.4 mg/dL
Cl (3 h): 104.8 meq/L
DBIL (3 h): 0.052 mg/dL
GLC (3 h): 187.6 mg/dL
IP (3 h): 9.9 mg/dL
K (3 h): 4.6 meq/L
LDH (3 h): 104.6 IU/L
Na (3 h): 139.4 meq/L
PL (3 h): 127.4 mg/dL
RALB (3 h): 3.5 g/dL
TBIL (3 h): 0.3 mg/dL
TC (3 h): 75.8 mg/dL
TG (3 h): 41.4 mg/dL
TP (3 h): 5.5 g/dL
gamma-GTP (3 h): 1.4 IU/L
TERMINAL_BW (6 h): 201.7 g
APTT (6 h): 16.8 s
Bas (6 h): 0%
Eos (6 h): 0.2%
Fbg (6 h): 217.4 mg/dL
Hb (6 h): 13.5 g/dL
Ht (6 h): 40.4%
Lym (6 h): 84.2%
MCH (6 h): 21.9 pg
MCHC (6 h): 33.4%
MCV (6 h): 65.6 fL
Mono (6 h): 4.2%
Neu (6 h): 11.4%
PT (6 h): 12.2 s
Plat (6 h): 103.8 x10_4/uL
RBC (6 h): 616.2 x10_4/ul
Ret (6 h): 9.4%
WBC (6 h): 137.8 x10_2/uL
KIDNEY_L (6 h): 1 g
KIDNEY_R (6 h): 1 g
KIDNEY_TOTAL (6 h): 1.9 g
LIVER (6 h): 8.7 g
A/G (6 h): 1.9
ALP (6 h): 941.6 IU/L
ALT (6 h): 33.6 IU/L
AST (6 h): 66.8 IU/L
BUN (6 h): 11.6 mg/dL
CRE (6 h): 0.5 mg/dL
Ca (6 h): 11 mg/dL
Cl (6 h): 104.2 meq/L
DBIL (6 h): 0.02 mg/dL
GLC (6 h): 187.6 mg/dL
IP (6 h): 10.8 mg/dL
K (6 h): 5 meq/L
LDH (6 h): 80.8 IU/L
Na (6 h): 141.2 meq/L
PL (6 h): 140 mg/dL
RALB (6 h): 3.5 g/dL
TBIL (6 h): 0.3 mg/dL
TC (6 h): 79.6 mg/dL
TG (6 h): 49.2 mg/dL
TP (6 h): 5.5 g/dL
gamma-GTP (6 h): 1.8 IU/L
TERMINAL_BW (9 h): 198 g
APTT (9 h): 17 s
Bas (9 h): 0%
Eos (9 h): 0.8%
Fbg (9 h): 226 mg/dL
Hb (9 h): 13.1 g/dL
Ht (9 h): 40.1%
Lym (9 h): 78.6%
MCH (9 h): 21.4 pg
MCHC (9 h): 32.7%
MCV (9 h): 65.6 fL
Mono (9 h): 6.2%
Neu (9 h): 14.6%
PT (9 h): 12.2 s
Plat (9 h): 103.3 x10_4/uL
RBC (9 h): 611.2 x10_4/ul
Ret (9 h): 8.8%
WBC (9 h): 71.6 x10_2/uL
KIDNEY_L (9 h): 0.9 g
KIDNEY_R (9 h): 0.9 g
KIDNEY_TOTAL (9 h): 1.8 g
LIVER (9 h): 8.4 g
A/G (9 h): 2.3
ALP (9 h): 731 IU/L
ALT (9 h): 28.6 IU/L
AST (9 h): 67.6 IU/L
BUN (9 h): 11 mg/dL
CRE (9 h): 0.5 mg/dL
Ca (9 h): 10.7 mg/dL
Cl (9 h): 105.4 meq/L
DBIL (9 h): 0.024 mg/dL
GLC (9 h): 191 mg/dL
IP (9 h): 10.8 mg/dL
K (9 h): 5 meq/L
LDH (9 h): 93.8 IU/L
Na (9 h): 139.4 meq/L
PL (9 h): 136.2 mg/dL
RALB (9 h): 3.9 g/dL
TBIL (9 h): 0.3 mg/dL
TC (9 h): 81.6 mg/dL
TG (9 h): 30.8 mg/dL
TP (9 h): 5.5 g/dL
gamma-GTP (9 h): 1.8 IU/L
TERMINAL_BW (24 h): 218.8 g
APTT (24 h): 16.9 s
Bas (24 h): 0%
Eos (24 h): 0.4%
Fbg (24 h): 207.4 mg/dL
Hb (24 h): 12.8 g/dL
Ht (24 h): 38.5%
Lym (24 h): 80.2%
MCH (24 h): 22.3 pg
MCHC (24 h): 33.3%
MCV (24 h): 67.1 fL
Mono (24 h): 7%
Neu (24 h): 12.6%
PT (24 h): 12.1 s
Plat (24 h): 96.4 x10_4/uL
RBC (24 h): 574.2 x10_4/ul
Ret (24 h): 9.1%
WBC (24 h): 121.6 x10_2/uL
KIDNEY_L (24 h): 1 g
KIDNEY_R (24 h): 1 g
KIDNEY_TOTAL (24 h): 2 g
LIVER (24 h): 11.1 g
A/G (24 h): 2.3
ALP (24 h): 839.8 IU/L
ALT (24 h): 38.8 IU/L
AST (24 h): 62.4 IU/L
BUN (24 h): 16.8 mg/dL
CRE (24 h): 0.5 mg/dL
Ca (24 h): 11.3 mg/dL
Cl (24 h): 104.4 meq/L
DBIL (24 h): 0.038 mg/dL
GLC (24 h): 195.8 mg/dL
IP (24 h): 8.7 mg/dL
K (24 h): 4.8 meq/L
LDH (24 h): 87.4 IU/L
Na (24 h): 137.8 meq/L
PL (24 h): 157.2 mg/dL
RALB (24 h): 4 g/dL
TBIL (24 h): 0.3 mg/dL
TC (24 h): 86.8 mg/dL
TG (24 h): 80.6 mg/dL
TP (24 h): 5.7 g/dL
gamma-GTP (24 h): 1.4 IU/L
